Assays:
[1] = system: Aspergillus fumigatus; assay: Expected efficacy of antifungal agents
[2] = system: Coccidioides immitis
[3] = system: Cryptococcus neoformans; assay: Expected efficacy of antifungal agents
[4] = system: Aspergillus flavus; assay: Expected efficacy of antifungal agents
[5] = system: Trichophyton mentagrophytes; assay: Expected efficacy of antifungal agents
[6] = system: Leishmania infantum; assay: Expected efficacy of antifungal agents
[7] = system: Campylobacter jejuni; assay: Expected efficacy of antibiotic agents; conditions: Gram: neg
[8] = system: Shigella flexneri; assay: Expected efficacy of antibiotic agents; conditions: Gram: neg
[9] = system: Streptococcus pneumoniae; assay: Expected efficacy of antibiotic agents; conditions: Gram: pos
[10] = system: Haemophilus ducreyi; assay: Expected efficacy of antibiotic agents; conditions: Gram: neg
[11] = system: Streptococcus agalactiae; assay: Expected efficacy of antibiotic agents; conditions: Gram: pos
[12] = system: Staphylococcus epidermidis; assay: Expected efficacy of antibiotic agents; conditions: Gram: pos
[13] = system: Bordetella pertussis; assay: Expected efficacy of antibiotic agents; conditions: Gram: neg
[14] = system: Enterobacter sakazakii; assay: Expected efficacy of antibiotic agents; conditions: Gram: neg
[15] = system: Acinetobacter lwoffii; assay: Expected efficacy of antibiotic agents; conditions: Gram: neg
[16] = system: Enterococcus faecium; assay: Expected efficacy of antibiotic agents; conditions: Gram: pos
[17] = system: Mycoplasma pneumoniae; assay: Expected efficacy of antibiotic agents; conditions: Gram: n/a
[18] = system: Acinetobacter calcoaceticus; assay: Expected efficacy of antibiotic agents; conditions: Gram: neg
[19] = system: Enterobacter cloacae; assay: Expected efficacy of antibiotic agents; conditions: Gram: neg
[20] = system: Citrobacter freundii; assay: Expected efficacy of antibiotic agents; conditions: Gram: neg
[21] = system: Yersinia pestis; conditions: Gram: neg
[22] = system: Clostridium difficile; assay: Expected efficacy of antibiotic agents; conditions: Gram: anaer
[23] = system: Staphylococcus aureus (MSSA); assay: Expected efficacy of antibiotic agents; conditions: Gram: pos
[24] = system: Corynebacterium jeikeium; assay: Expected efficacy of antibiotic agents; conditions: Gram: pos
[25] = system: Proteus mirabilis; assay: Expected efficacy of antibiotic agents; conditions: Gram: neg
[26] = system: Chlamydia pneumoniae; assay: Expected efficacy of antibiotic agents; conditions: Gram: n/a
[27] = system: Clostridium perfringens; conditions: Gram: anaer
[28] = system: Moraxella catarrhalis; assay: Expected efficacy of antibiotic agents; conditions: Gram: neg
[29] = system: Shigella sonnei; assay: Expected efficacy of antibiotic agents; conditions: Gram: neg
[30] = system: Neisseria meningitidis; assay: Expected efficacy of antibiotic agents; conditions: Gram: neg
[31] = system: Corynebacterium urealyticum; assay: Expected efficacy of antibiotic agents; conditions: Gram: pos
[32] = system: Peptostreptococcus; assay: Expected efficacy of antibiotic agents; conditions: Gram: pos
[33] = system: Diphtheroids; assay: Expected efficacy of antibiotic agents; conditions: Gram: pos
[34] = system: Legionella pneumophila; conditions: Gram: neg
[35] = system: Acinetobacter baumannii; assay: Expected efficacy of antibiotic agents; conditions: Gram: neg
[36] = system: Bacteroides fragilis; assay: Expected efficacy of antibiotic agents; conditions: Gram: anaer
[37] = system: Pseudomonas aeruginosa; assay: Expected efficacy of antibiotic agents; conditions: Gram: neg
[38] = system: Neisseria gonorrhoeae; assay: Expected efficacy of antibiotic agents; conditions: Gram: neg
[39] = system: Chlamydia psittaci; conditions: Gram: n/a
[40] = system: Chlamydia trachomatis; assay: Expected efficacy of antibiotic agents; conditions: Gram: n/a
[41] = system: Enterococcus faecalis; assay: Expected efficacy of antibiotic agents; conditions: Gram: pos
[42] = system: Vibrio cholerae; assay: Expected efficacy of antibiotic agents; conditions: Gram: neg
[43] = system: Methicillin resistant staphaureus (MRSA); assay: Expected efficacy of antibiotic agents; conditions: Gram: pos
[44] = system: Shigella dysenteriae; assay: Expected efficacy of antibiotic agents; conditions: Gram: neg
[45] = system: Streptococcus pyogenes; assay: Expected efficacy of antibiotic agents; conditions: Gram: pos
[46] = system: Klebsiella pneumoniae; assay: Expected efficacy of antibiotic agents; conditions: Gram: neg
[47] = system: Klebsiella (Calymmato-bacterium) granulomatis; assay: Expected efficacy of antibiotic agents; conditions: Gram: neg
[48] = system: Viridans group streptococci; assay: Expected efficacy of antibiotic agents; conditions: Gram: pos
[49] = system: Scedosporium apiospermum; assay: Expected efficacy of antifungal agents

## CCC(C)n1ncn(-c2ccc(N3CCN(c4ccc(OC[C@H]5CO[C@](Cn6cncn6)(c6ccc(Cl)cc6Cl)O5)cc4)CC3)cc2)c1=O (mixture of isomers) [Itraconazole]
[1]
  Expected efficacy against Aspergillus fumigatus: yes
[2]
  Expected efficacy against Coccidioides immitis: yes
[3]
  Expected efficacy against Cryptococcus neoformans: yes
[4]
  Expected efficacy against Aspergillus flavus: yes
[5]
  Expected efficacy against Trichophyton mentagrophytes: yes

## C[C@@H]1[C@H](O)[C@@H](C)/C=C/C=C/C=C/C=C/C=C/C=C/C=C/[C@H](O[C@@H]2O[C@H](C)[C@@H](O)[C@H](N)[C@@H]2O)C[C@@H]2O[C@](O)(C[C@@H](O)C[C@@H](O)[C@H](O)CC[C@@H](O)C[C@@H](O)CC(=O)O[C@H]1C)C[C@H](O)[C@H]2C(=O)O [Amphotericin]
[1]
  Expected efficacy against Aspergillus fumigatus: yes
[6]
  Expected efficacy against Leishmania infantum: yes
[2]
  Expected efficacy against Coccidioides immitis: yes
[3]
  Expected efficacy against Cryptococcus neoformans: yes
[4]
  Expected efficacy against Aspergillus flavus: yes

## NC[C@H]1O[C@H](O[C@H]2[C@H](O)[C@@H](O[C@H]3O[C@H](CO)[C@@H](O)[C@H](N)[C@H]3O)[C@H](N)C[C@@H]2N)[C@H](N)C[C@@H]1O [Tobramycin]
[7]
  Expected efficacy against Campylobacter jejuni: yes
[8]
  Expected efficacy against Shigella flexneri: yes
[9]
  Expected efficacy against Streptococcus pneumoniae: no
[10]
  Expected efficacy against Haemophilus ducreyi: yes
[11]
  Expected efficacy against Streptococcus agalactiae: no
[12]
  Expected efficacy against Staphylococcus epidermidis: no
[13]
  Expected efficacy against Bordetella pertussis: no
[14]
  Expected efficacy against Enterobacter sakazakii: yes
[15]
  Expected efficacy against Acinetobacter lwoffii: no
[16]
  Expected efficacy against Enterococcus faecium: no
[17]
  Expected efficacy against Mycoplasma pneumoniae: no
[18]
  Expected efficacy against Acinetobacter calcoaceticus: no
[19]
  Expected efficacy against Enterobacter cloacae: yes
[20]
  Expected efficacy against Citrobacter freundii: yes
[21]
  Expected efficacy against Yersinia pestis: yes
[22]
  Expected efficacy against Clostridium difficile: no
[23]
  Expected efficacy against Staphylococcus aureus (MSSA): no
[24]
  Expected efficacy against Corynebacterium jeikeium: no
[25]
  Expected efficacy against Proteus mirabilis: yes
[26]
  Expected efficacy against Chlamydia pneumoniae: no
[27]
  Expected efficacy against Clostridium perfringens: no
[28]
  Expected efficacy against Moraxella catarrhalis: yes
[29]
  Expected efficacy against Shigella sonnei: yes
[30]
  Expected efficacy against Neisseria meningitidis: no
[31]
  Expected efficacy against Corynebacterium urealyticum: no
[32]
  Expected efficacy against Peptostreptococcus: no
[33]
  Expected efficacy against Diphtheroids: no
[34]
  Expected efficacy against Legionella pneumophila: no
[35]
  Expected efficacy against Acinetobacter baumannii: no
[36]
  Expected efficacy against Bacteroides fragilis: no
[37]
  Expected efficacy against Pseudomonas aeruginosa: yes
[38]
  Expected efficacy against Neisseria gonorrhoeae: no
[39]
  Expected efficacy against Chlamydia psittaci: no
[40]
  Expected efficacy against Chlamydia trachomatis: no
[41]
  Expected efficacy against Enterococcus faecalis: no
[42]
  Expected efficacy against Vibrio cholerae: no
[43]
  Expected efficacy against Methicillin resistant staphaureus (MRSA): no
[44]
  Expected efficacy against Shigella dysenteriae: yes
[45]
  Expected efficacy against Streptococcus pyogenes: no
[46]
  Expected efficacy against Klebsiella pneumoniae: yes
[47]
  Expected efficacy against Klebsiella (Calymmato-bacterium) granulomatis: yes
[48]
  Expected efficacy against Viridans group streptococci: no

## C[C@@H](c1ncncc1F)[C@](O)(Cn1cncn1)c1ccc(F)cc1F [Voriconazole]
[1]
  Expected efficacy against Aspergillus fumigatus: yes
[49]
  Expected efficacy against Scedosporium apiospermum: yes
[4]
  Expected efficacy against Aspergillus flavus: yes
